Legend:
[1] = system: Human immunodeficiency virus 1; test: Antiviral activity against Human immunodeficiency virus 1 infected human H9 cells assessed as inhibition of viral replication; format: functional, organism-based; settings: Human immunodeficiency virus 1, H9; read-out: pEC50 (converted)
[2] = Therapeutic index, ratio of IC50 for human H9 cells to EC50 for HIV1; format: cell-based; settings: h9

| SMILES | EC50 [1] | pTI [2] |
| --- | --- | --- |
| CC(C)[C@@H]1CC[C@]2(C(=O)OC(=O)OCN(C)C)CC[C@]3(C)[C@H](CC[C@@H]4[C@@]5(C)CCC(=O)C(C)(C)[C@@H]5CC[C@]43C)[C@@H]12 | 3800 nM | -0.544 |
| CC(C)[C@@H]1CC[C@]2(C(=O)O)CC[C@]3(C)[C@H](CC[C@@H]4[C@@]5(C)CC[C@H](OC(=O)C(C)(C)CC(=O)O)C(C)(C)[C@@H]5CC[C@]43C)[C@@H]12 | 560 nM | -1.14 |
| CC(C)[C@@H]1CC[C@]2(C(=O)OCc3ccccc3)CC[C@]3(C)[C@H](CC[C@@H]4[C@@]5(C)CC[C@H](O)C(C)(C)[C@@H]5CC[C@]43C)[C@@H]12 | 100000 nM | -0.255 |
| C=C(C)[C@@H]1CC[C@]2(C(=O)O)CC[C@]3(C)[C@H](CC[C@@H]4[C@@]5(C)CC[C@H](OC(=O)CCCC(=O)O)C(C)(C)[C@@H]5CC[C@]43C)[C@@H]12 | 44 nM | -2.465 |
| C=C(C)[C@@H]1CC[C@]2(COC(=O)CC(C)(C)CC(=O)O)CC[C@]3(C)[C@H](CC[C@@H]4[C@@]5(C)CCC(=O)C(C)(C)[C@@H]5CC[C@]43C)[C@@H]12 | 10000 nM | -0.462 |
| CC(C)[C@@H]1CC[C@]2(COC(=O)CC(C)(C)CC(=O)O)CC[C@]3(C)[C@H](CC[C@@H]4[C@@]5(C)CC[C@H](OC(=O)CC(C)(C)CC(=O)O)C(C)(C)[C@@H]5CC[C@]43C)[C@@H]12 | 4.7 nM | -3.353 |
| C=C(C)[C@@H]1CC[C@]2(CO)CC[C@]3(C)[C@H](CC[C@@H]4[C@@]5(C)CC[C@@H](O)C(C)(C)[C@@H]5CC[C@]43C)[C@@H]12 [3-EPI-BETULIN] | 3620 nM | -0.532 |
| CC(C)[C@@H]1CC[C@]2(C(=O)OC(=O)N3CCOCC3)CC[C@]3(C)[C@H](CC[C@@H]4[C@@]5(C)CC[C@H](O)C(C)(C)[C@@H]5CC[C@]43C)[C@@H]12 | 26000 nM | -0.114 |
| CC(C)[C@@H]1CC[C@]2(C(=O)O)CC[C@]3(C)[C@H](CC[C@@H]4[C@@]5(C)CC[C@H](OC(=O)COCC(=O)O)C(C)(C)[C@@H]5CC[C@]43C)[C@@H]12 | 5.6 nM | -3.37 |
| C=C(C)[C@@H]1CC[C@]2(C(=O)O)CC[C@]3(C)[C@H](CC[C@@H]4[C@@]5(C)CC[C@H](O)C(C)(C)[C@@H]5CC[C@]43C)[C@@H]12 (stereo in doubt; 8) [BETULINIC ACID] | 899 nM | -1.146 |
| C=C(C)[C@@H]1CC[C@]2(CN)CC[C@]3(C)[C@H](CC[C@@H]4[C@@]5(C)CC[C@H](N)C(C)(C)[C@@H]5CC[C@]43C)[C@@H]12 | 1070 nM | -0.708 |
| C=C(C)[C@@H]1CC[C@]2(COC(=O)CCC(=O)O)CC[C@]3(C)[C@H](CC[C@@H]4[C@@]5(C)CC[C@H](OC(=O)CCC(=O)O)C(C)(C)[C@@H]5CC[C@]43C)[C@@H]12 | 3800 nM | -0.969 |
| CCC(C)(CC(=O)O)CC(=O)OC[C@]12CC[C@@H](C(C)C)[C@@H]1[C@H]1CC[C@@H]3[C@@]4(C)CC[C@H](OC(=O)CC(C)(CC)CC(=O)O)C(C)(C)[C@@H]4CC[C@@]3(C)[C@]1(C)CC2 (stereo not given in full) | 75 nM | -2.395 |
| C=C(C)[C@@H]1CC[C@]2(COC(=O)CCCC(=O)O)CC[C@]3(C)[C@H](CC[C@@H]4[C@@]5(C)CC[C@H](OC(=O)CCCC(=O)O)C(C)(C)[C@@H]5CC[C@]43C)[C@@H]12 | 3800 nM | -0.833 |
| CC(C)[C@@H]1CC[C@]2(COC(=O)CC3(CC(=O)O)CCCC3)CC[C@]3(C)[C@H](CC[C@@H]4[C@@]5(C)CC[C@H](OC(=O)CC6(CC(=O)O)CCCC6)C(C)(C)[C@@H]5CC[C@]43C)[C@@H]12 | 579 nM | -1.568 |
| C=C(C)[C@@H]1CC[C@]2(CNC(=O)CC(C)(C)CC(=O)O)CC[C@]3(C)[C@H](CC[C@@H]4[C@@]5(C)CC[C@H](NC(=O)CC(C)(C)CC(=O)O)C(C)(C)[C@@H]5CC[C@]43C)[C@@H]12 | 570 nM | -1.564 |
| C=C(C)[C@@H]1CC[C@]2(COC(=O)CC3(CC(=O)O)CCCC3)CC[C@]3(C)[C@H](CC[C@@H]4[C@@]5(C)CC[C@H](OC(=O)CC6(CC(=O)O)CCCC6)C(C)(C)[C@@H]5CC[C@]43C)[C@@H]12 | 76.9 nM | -2.427 |
| C=C(COC(C)=O)[C@@H]1CC[C@]2(COC(C)=O)CC[C@]3(C)[C@H](CC[C@@H]4[C@@]5(C)CC[C@H](OC(C)=O)C(C)(C)[C@@H]5CC[C@]43C)[C@@H]12 | 10200 nM | -0.398 |
| C=C(C)[C@@H]1CC[C@]2(COC(C)=O)CC[C@]3(C)[C@H](CC[C@@H]4[C@@]5(C)CC[C@H](OC(C)=O)C(C)(C)[C@@H]5CC[C@]43C)[C@@H]12 [BETULIN DIACETATE] | 190000 nM | 0 |
| CC(C)[C@@H]1CC[C@]2(C(=O)O)CC[C@]3(C)[C@H](CC[C@@H]4[C@@]5(C)CC[C@H](OC(=O)CC(C)(C)CC(=O)O)C(C)(C)[C@@H]5CC[C@]43C)[C@@H]12 | 5.7 nM | -3.007 |

— ChEMBL document CHEMBL3046569 (Med Chem Res, 2011)
